Experimental data reported in patent publication US20260258084A1, “New Peptides as Selective IL-23 Receptor Antagonists” (Sanofi, priority 2022, published 2026).
Starred links: 1 amine or outer side, 2 acyl side, 3 side chain; linkers in the order of their positions; H or OH if unused. Positions of bridges follow the written chain, without caps; N, C: chain ends. Non-standard residues stand in square brackets, D forms with d. Residues, ends and D or L forms follow the SMILES beside them. *: point of attachment. X5 = CN(C(=O)CCC(=O)[*:3])[C@@H](CS[*:2])C(=O)[*:1]; X6 = O=C(CCC(=O)[*:3])N[C@@H](CS[*:2])C(=O)[*:1]; Trp(7-Me) = Cc1cccc2c(C[C@H](N)C(=O)O)c[nH]c12; X1 = O=C(CCCCN[*:3])N[C@@H](CS[*:2])C(=O)[*:1]; αMeLys(Me2) = CN(C)CCCC[C@](C)(N)C(=O)O; 2Nal = N[C@@H](Cc1ccc2ccccc2c1)C(=O)O; 3Pal = N[C@@H](Cc1cccnc1)C(=O)O; Lys(Me) = CNCCCC[C@H](N)C(=O)O; αMeL = CC(C)C[C@](C)(N)C(=O)O; Suc = O=C(CCC(=O)[*:2])[*:1]; Me2NCH2CH2 = CN(C)CC*; Aib = CC(C)(N)C(=O)O; Ahx = NCCCCCC(=O)O; Ava = NCCCCC(=O)O; Sar = CNCC(=O)O

Tests used:
[1] = biological target: T1, human interleukin-23 receptor (recombinant human IL-23R-Fc chimera) (Homo sapiens, UniProt Q5VWK5); test: Human ELISA IL23/IL23R (assay for specific human IL23R antagonists); assay type: binding; conditions: Table 10; read-out: Human ELISA IL23/IL23R IC50
T1 construct: Fc (IgG Fc fusion)
In short: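 Plates coated overnight at 4 °C with human IL23 ([…]), blocked, then serially diluted peptides added with recombinant human IL-23R-Fc (0.1 μg/ml final) for 60 min at room temperature. Bound receptor detected with anti-human IgG1-HRP and fluorogenic peroxidase substrate.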

[2] = system: IL-23 induced STAT3 signaling in HEK-Blue™ IL-23 cells; test: IL-23 induced STAT3 signaling in HEK-Blue IL-23 cells (SEAP reporter); assay type: cell-based; conditions: human IL23 0.25 ng/ml, read-out: pSTAT3
In short: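 HEK-Blue IL-23 cells (10,000/well) pre-incubated 60 min at 37 °C with serially diluted peptides, then stimulated overnight with human IL-23 (0.25 ng/ml final). STAT3-driven SEAP in supernatant detected with QUANTI-Blue after 45 min at RT (OD 620-655 nm); dose-response curves fitted.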

[3] = system: T2, Pepsin; test: Protease stability in simulated gastric fluid (Pepsin-SGF, FaSSGF); assay type: in vitro ADME; conditions: simulated gastric fluid with pepsin (Pepsin-SGF), 60 min, 1 μM peptide, 37° C., read-out: FaSSGF 60 (min), remaining percent of peptide
T2 construct: purchased Merck Millipore
In short: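 Peptides at 1 μM final in pepsin-containing SGF at 37° C, sampled at 0, 60, 120 and 240 min, quenched with ethanol (0.1% HCOOH). Analysed by LCMS/MS; percent remaining from peak area relative to time 0 (set to 100%).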

[4] = system: Pancreatin; test: Protease stability in simulated intestinal fluid (Pancreatin-SIF, FaSSIF); assay type: in vitro ADME; conditions: 1 μM peptide, 37° C.; for remaining at 1 h, 1 µM: 60 min, read-out: FaSSIF 60 (min), remaining percent of peptide; for remaining at 2 h, 1 µM: 120 min, read-out: FaSSIF 120 (min), remaining percent of peptide; for remaining at 4 h, 1 µM: 240 min, read-out: FaSSIF 240 (min), remaining percent of peptide
In short: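 Peptide (1 μM final) was incubated at 37° C in simulated intestinal fluid containing pancreatin (1 mg per 10 mL SIF concentrate). Samples were quenched with ethanol/0.1% HCOOH at 0, 60, 120 and 240 min and analysed by LC-MS/MS. Percent remaining is the peak area relative to time 0 (100%).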

SMILES	IC50 [1] [nM]	remaining at 1 h, 1 µM [3] [%]	remaining at 1 h, 1 µM [4] [%]	remaining at 2 h, 1 µM [4] [%]	remaining at 4 h, 1 µM [4] [%]	IC50 [2] [nM]
CC(=O)NCCCC[C@@H]1NC(=O)[C@H](Cc2c[nH]c3c(C)cccc23)NC(=O)[C@@H](NC(C)=O)CCCCNC(=O)[C@@H]2CSSC[C@H](NC1=O)C(=O)N[C@@H](Cc1ccc(OCCN(C)C)cc1)C(=O)N[C@@H](Cc1ccc3ccccc3c1)C(=O)NC(C)(C)C(=O)N[C@H](C(=O)N[C@@H](CC(N)=O)C(=O)N[C@@H](Cc1cccnc1)C(=O)N(C)CC(N)=O)CCCCNC(=O)CCC(=O)N2 [compound 104] (Ac-K[Trp(7-Me)]K(Ac)CY(Me2NCH2CH2)[2Nal][Aib]KN[3Pal][Sar]-NH2; linker 1-4-8 via X6)	0.64	100	80	80	76	0.1
CC(=O)NCCCC[C@@H]1NC(=O)[C@H](Cc2c[nH]c3c(C)cccc23)NC(=O)[C@@H](NC(C)=O)CCCCNC(=O)[C@@H]2CSSC[C@H](NC1=O)C(=O)N[C@@H](Cc1ccc(OCCN(C)C)cc1)C(=O)N[C@@H](Cc1ccc3ccccc3c1)C(=O)N[C@@](C)(CC(C)C)C(=O)N[C@H](C(=O)N[C@@H](CC(N)=O)C(=O)N[C@@H](Cc1cccnc1)C(=O)N(C)CC(N)=O)CCC(=O)NCCCCC(=O)N2 [compound 73] (Ac-K[Trp(7-Me)]K(Ac)CY(Me2NCH2CH2)[2Nal][αMeL]EN[3Pal][Sar]-NH2; linker 1-4-8 via X1)	0.58	87	82	81	77	0.1
CC(=O)N[C@H]1CCCCNC(=O)[C@@H]2CSSC[C@H](NC(=O)[C@H](CC(C)C)NC(=O)[C@H](Cc3c[nH]c4c(C)cccc34)NC1=O)C(=O)N[C@@H](Cc1ccc(OCCN(C)C)cc1)C(=O)N[C@@H](Cc1ccc3ccccc3c1)C(=O)N[C@@](C)(CC(C)C)C(=O)N[C@H](C(=O)N[C@@H](C)C(=O)N[C@@H](Cc1cccnc1)C(=O)N(C)CC(N)=O)CCCCN(C)C(=O)CCC(=O)N2C [compound 70] (Ac-K[Trp(7-Me)]LCY(Me2NCH2CH2)[2Nal][αMeL][Lys(Me)]A[3Pal][Sar]-NH2; linker 1-4-8 via X5)	2.07	78	94	90	87	3.94
CC[C@H](C)[C@H](NC(=O)[C@H](CC(N)=O)NC(=O)[C@H](CC(N)=O)NC(=O)[C@@H]1CCC(=O)NCCCCC(=O)N[C@H]2CSSC[C@H](NC(=O)[C@H](CCCCNC(C)=O)NC(=O)[C@H](Cc3c[nH]c4ccccc34)NC(=O)[C@H]([C@@H](C)O)NC(=O)[C@H](CC(N)=O)NC2=O)C(=O)N[C@@H](Cc2ccc(OCCN(C)C)cc2)C(=O)N[C@@H](Cc2ccc3ccccc3c2)C(=O)NC(C)(C)C(=O)N1)C(N)=O [compound 38] ([Ava]CNTWK(Ac)CY(Me2NCH2CH2)[2Nal][Aib]ENNI-NH2; disulfide 2-7; lactam N-11)	0.36	86	100	96	84	11.9
CC(=O)NCCCC[C@@H]1NC(=O)[C@H](Cc2c[nH]c3c(C)cccc23)NC(=O)[C@H]([C@@H](C)O)NC(=O)[C@H](CC(N)=O)NC(=O)[C@@H]2CSSC[C@H](NC1=O)C(=O)N[C@@H](Cc1ccc(OCCN(C)C)cc1)C(=O)N[C@@H](Cc1ccc3ccccc3c1)C(=O)N[C@@](C)(CCCCN(C)C)C(=O)N[C@H](C(=O)N[C@@H](CC(N)=O)C(=O)N[C@@H](Cc1cccnc1)C(=O)N(C)CC(N)=O)CCCCNC(=O)CCC(=O)N2 [compound 151] (CNT[Trp(7-Me)]K(Ac)CY(Me2NCH2CH2)[2Nal][αMeLys(Me2)]KN[3Pal][Sar]-NH2; disulfide 1-6; linker N-10 via Suc)	0.61	101	97	97	96	0.06

The next lines start with results.

IC50 [1] [nM]	remaining at 1 h, 1 µM [3] [%]	remaining at 1 h, 1 µM [4] [%]	remaining at 2 h, 1 µM [4] [%]	remaining at 4 h, 1 µM [4] [%]	SMILES	IC50 [2] [nM]
0.5	102	81	76	65	Cc1cccc2c(C[C@@H]3NC(=O)[C@H]([C@@H](C)O)NC(=O)[C@H](CC(N)=O)NC(=O)[C@@H]4CSSC[C@H](NC(=O)[C@H](CCC(N)=O)NC3=O)C(=O)N[C@@H](Cc3ccc(OCCN(C)C)cc3)C(=O)N[C@@H](Cc3ccc5ccccc5c3)C(=O)NC(C)(C)C(=O)N[C@H](C(=O)N[C@@H](CC(N)=O)C(=O)N[C@@H](Cc3c[nH]cn3)C(N)=O)CCC(=O)NCCCCC(=O)N4)c[nH]c12 [compound 52] ([Ava]CNT[Trp(7-Me)]QCY(Me2NCH2CH2)[2Nal][Aib]ENH-NH2; disulfide 2-7; lactam N-11)	1.25
0.38	99	100	100	98	Cc1cccc2c(C[C@@H]3NC(=O)[C@H]([C@@H](C)O)NC(=O)[C@H](CC(N)=O)NC(=O)[C@@H]4CSSC[C@H](NC(=O)[C@H](CCC(N)=O)NC3=O)C(=O)N[C@@H](Cc3ccc(OCCN(C)C)cc3)C(=O)N[C@@H](Cc3ccc5ccccc5c3)C(=O)N[C@@](C)(CCCCN(C)C)C(=O)N[C@H](C(=O)N[C@@H](CC(N)=O)C(=O)N[C@@H](Cc3cccnc3)C(=O)N(C)CC(N)=O)CCCCNC(=O)CCC(=O)N4)c[nH]c12 [compound 152] (CNT[Trp(7-Me)]QCY(Me2NCH2CH2)[2Nal][αMeLys(Me2)]KN[3Pal][Sar]-NH2; disulfide 1-6; linker N-10 via Suc)	0.04
0.27	91	96	92	92	CC(=O)NCCCC[C@@H]1NC(=O)[C@H](Cc2c[nH]c3c(C)cccc23)NC(=O)[C@H]([C@@H](C)O)NC(=O)[C@H](CC(N)=O)NC(=O)[C@@H]2CSSC[C@H](NC1=O)C(=O)N[C@@H](Cc1ccc(OCCN(C)C)cc1)C(=O)N[C@@H](Cc1ccc3ccccc3c1)C(=O)NC(C)(C)C(=O)N[C@H](C(=O)N[C@@H](CC(N)=O)C(=O)N[C@@H](Cc1cccnc1)C(=O)N(C)CC(N)=O)CCC(=O)NCCCCC(=O)N2 [compound 64] ([Ava]CNT[Trp(7-Me)]K(Ac)CY(Me2NCH2CH2)[2Nal][Aib]EN[3Pal][Sar]-NH2; disulfide 2-7; lactam N-11)	0.22
0.23	61	95	80	52	CC[C@H](C)[C@H](NC(=O)[C@H](CC(N)=O)NC(=O)[C@H](CC(N)=O)NC(=O)[C@@H]1CCC(=O)NCCCCC(=O)N[C@H]2CSSC[C@H](NC(=O)[C@H](CCC(N)=O)NC(=O)[C@H](Cc3c[nH]c4ccccc34)NC(=O)[C@H]([C@@H](C)O)NC(=O)[C@H](CC(N)=O)NC2=O)C(=O)N[C@@H](Cc2ccc(OCCN(C)C)cc2)C(=O)N[C@@H](Cc2ccc3ccccc3c2)C(=O)NC(C)(C)C(=O)N1)C(N)=O [compound 57] ([Ava]CNTWQCY(Me2NCH2CH2)[2Nal][Aib]ENNI-NH2; disulfide 2-7; lactam N-11)	5.5
0.51	91	100	100	90	CC(=O)NCCCC[C@@H]1NC(=O)[C@H](Cc2c[nH]c3c(C)cccc23)NC(=O)[C@H]([C@@H](C)O)NC(=O)[C@H](CC(N)=O)NC(=O)[C@@H]2CSSC[C@H](NC1=O)C(=O)N[C@@H](Cc1ccc(OCCN(C)C)cc1)C(=O)N[C@@H](Cc1ccc3ccccc3c1)C(=O)N[C@@](C)(CCCCN(C)C)C(=O)N[C@H](C(=O)N[C@@H](CC(N)=O)C(=O)N[C@H](CC(C)C)C(N)=O)CCC(=O)NCCCCC(=O)N2 [compound 54] ([Ava]CNT[Trp(7-Me)]K(Ac)CY(Me2NCH2CH2)[2Nal][αMeLys(Me2)]EN[dL]-NH2; disulfide 2-7; lactam N-11)	2.59
0.7	1	76	64	38	COc1ccc(C[C@@H]2NC(=O)[C@@H]3CSSC[C@H](NC(=O)CCCCCNC(=O)C[C@@H](C(=O)N[C@@H](CC(N)=O)C(=O)N[C@@H](CC(N)=O)C(N)=O)NC(=O)C(C)(C)NC(=O)[C@H](Cc4ccc5ccccc5c4)NC2=O)C(=O)N[C@@H](CC(N)=O)C(=O)N[C@@H]([C@@H](C)O)C(=O)N[C@@H](Cc2c[nH]c4ccccc24)C(=O)N[C@@H](CCC(N)=O)C(=O)N3)cc1 [compound 3] ([Ahx]CNTWQCY(Me)[2Nal][Aib]DNN-NH2; disulfide 2-7; lactam N-11)	17.2
